# Measurements taken from US6492401B1, “N-[(substituted five-membered di- or triaza diunsaturated ring)carbonyl] guanidine derivatives for the treatment of ischemia” (Pfizer, Inc., priority 1998, dated 2002).
# Molecular target: T1, human NHE-1 (Homo sapiens, UniProt P19634)
# T1 construct: expressed in transfected cells; host or cells: fibroblasts stably expressing human NHE-1 (cell line per Counillon et al., Mol. Pharmacol. 44:1041-1045, 1993)
# Assay: Measurement of human NHE-1 inhibitory activity (NHE-mediated recovery of intracellular pH after acidification, BCECF fluorescence)
# Type: cell-based
# Details: fibroblasts stably expressing human NHE-1
# Description: Methodologies for measurement of human NHE-1 activity and inhibitor potency are based on those published by Watson et al., Am. J. Physiol., 24:G229-G238, 1991), where NHE-mediated recovery of intracellular pH is measured following intracellular acidification. Thus, fibroblasts stably expressing human NHE-1 (Counillon, L. et al., Mol. Pharmacol., 44:1041-1045 (1993) are plated onto collagen coated 96 well plates (50,000/well) and grown to confluence in growth media (DMEM high glucose, 10% fetal bovine serum, 50 u/ml penicillin and streptomycin). Confluent plates are incubated for 30 min at 37° C. with the pH sensitive fluorescent probe BCECF (5 μM; Molecular Probes, Eugene, Oreg.). BCECF loaded cells are incubated for 30 min at 37° C. in acid loading media (70 mM choline chloride, 50 mM NHCl4, 5 mM KCl, 1 mM MgCl2, 1.8 mM CaCl2, 5 mM glucose, 10 mM HEPES, pH 7.5), and then placed in a Fluorescent Imaging Plate Reader (Molecular Devices, CA). BCECF fluorescence is monitored using excitation and emission wavelengths of 485 nm and 525 nM, respectively. Intracellular acidification is initiated via rapid replacement of acid loading media with recovery media (120 mM NaCl, 5 mM KCl, 1 mM MgCl2, 1.8 mM CaCl2, 5 mM glucose, 10 mM HEPES, pH 7.5)±test compound, and NHE-mediated recovery of intracellular pH is monitored as the subsequent time-dependent increase BCECF fluorescence.
# T1 sequence (P19634 whole entry): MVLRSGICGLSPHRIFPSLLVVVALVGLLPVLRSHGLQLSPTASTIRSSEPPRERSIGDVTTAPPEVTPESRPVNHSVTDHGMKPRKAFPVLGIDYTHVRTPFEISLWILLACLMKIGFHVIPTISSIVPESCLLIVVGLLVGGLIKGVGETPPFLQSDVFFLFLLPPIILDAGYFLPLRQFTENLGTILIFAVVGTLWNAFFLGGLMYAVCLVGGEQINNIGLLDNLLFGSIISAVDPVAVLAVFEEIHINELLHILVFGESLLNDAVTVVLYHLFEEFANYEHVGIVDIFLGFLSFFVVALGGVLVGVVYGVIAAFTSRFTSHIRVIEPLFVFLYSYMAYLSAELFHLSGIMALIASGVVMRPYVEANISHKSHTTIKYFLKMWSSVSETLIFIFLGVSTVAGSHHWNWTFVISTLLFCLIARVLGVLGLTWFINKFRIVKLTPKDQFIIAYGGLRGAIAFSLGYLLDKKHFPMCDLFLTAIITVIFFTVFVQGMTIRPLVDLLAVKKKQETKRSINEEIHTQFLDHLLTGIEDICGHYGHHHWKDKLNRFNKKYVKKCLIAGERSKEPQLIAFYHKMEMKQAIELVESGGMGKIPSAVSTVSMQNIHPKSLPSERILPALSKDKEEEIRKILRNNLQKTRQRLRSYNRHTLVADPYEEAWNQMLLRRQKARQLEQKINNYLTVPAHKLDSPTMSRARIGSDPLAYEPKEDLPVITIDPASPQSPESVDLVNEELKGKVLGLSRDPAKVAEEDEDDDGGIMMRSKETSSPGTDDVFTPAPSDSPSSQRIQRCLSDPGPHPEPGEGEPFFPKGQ
structure (smiles),measurement,value
CC(C)c1ccc(C(=O)NC(=N)N)cc1S(C)(=O)=O [HOE-642],IC50,500 nM
